The test system of one data set is mouse T lymphocytes. The data set is described as follows: T-cell proliferation assay (ionomycin plus PMA induced T-cell stimulation, tritiated thymidine uptake). The data set is classed as cell-based, C57Bl/6 mice. Particulars: result in words. As to the method:
The principle of this assay is to measure the proliferation of mouse T lymphocytes stimulated with the combination of ionomycin plus PMA. A positive sample in this assay will inhibit T-cell proliferation, as indicated by reduced tritiated thymidine uptake.
An equal volume of methanol was added to a 1 ml sample of each of the above broths producing a 1:2 whole broth equivalent (WBE). The samples were centrifuged at 3,000 rpm for 5 minutes and the resulting supernatants were used as starting materials for the T-cell proliferation assay. […]
Purified T lymphocytes were resuspended at 10⁶ cells/ml in complete culture medium composed of RPMI 1640 medium with 10% heat-inactivated fetal calf serum, […], 1 mM sodium pyruvate, 2 x 10⁻⁵ M 2-mercaptoethanol and 50 µg/ml gentamycin. […] The proliferation of T lymphocytes was assessed by measurement of tritiated thymidine incorporation. […] Radioactivity of filter discs corresponding to individual wells was measured by standard liquid scintillation counting methods (Betacounter). Mean counts per minute of replicate wells were calculated and the results expressed as percent inhibition of tritiated thymidine uptake (proliferation) as follows: [formula]

Data set [1] is described as follows: Physical characteristics: solubility. The data set is classed as physicochemical. Particulars: methanol. The source says:
White amorphous powder • 2. […] Molecular weight determined by mass spectroscopy of 791.4784, consistent with an empirical formula of C₄₃H₆₉NO₁₂

Regarding `CC[C@@H]1/C=C(\C)C[C@H](C)C[C@H](OC)[C@H]2O[C@@](O)(C(=O)C(=O)N3CCCC[C@H]3C(=O)O[C@H](/C(C)=C/[C@@H]3CC[C@@H](O)[C@H](OC)C3)[C@H](C)[C@@H](O)CC1=O)[C@H](C)C[C@@H]2OC` [ascomycin, reference compound], the immunosuppressive activity result in the data set with mouse T lymphocytes (for ascomycin no test is named) is “exhibits immunosuppressive activity”.
Turning to `CC[C@@H]1/C=C(\C)C[C@H](C)C[C@H](OC)[C@H]2O[C@@](O)(C(=O)C(=O)N3CCCC[C@H]3C(=O)O[C@H](/C(C)=C/[C@@H]3CC[C@@H](O)[C@H](OC)C3)[C@H](C)[C@@H](O)CC1=O)[C@H](C)C[C@@H]2OC` [immunomycin], the “inhibition of T-cell activation” value in the data set on mouse T lymphocytes is on record as “positive inhibition of T-cell activation”. Besides, the Solubility result in data set [1] is “Solubility in methanol”.

The values above are taken from patent EP0323865A1, “Novel immunosuppressant agent” (Merck & Co., Inc., priority 1988, dated 1989).
